According to ChEMBL document CHEMBL4004838, “Design and synthesis of novel phenyl -1, 4-beta-carboline-hybrid molecules as potential anticancer agents” (Eur J Med Chem, 2017):

Key:
Format in all cases: functional
HL-60(TB) [1] = test: Growth inhibition of human HL-60(TB) cells assessed as cell growth at 1 uM incubated for 48 hrs by sulforhodamine B assay relative to control; details: HL-60, 48 h, read-out: Activity
BT-549 = test: Growth inhibition of human BT549 cells assessed as cell growth at 10^-5 M incubated for 48 hrs by sulforhodamine B assay relative to control; details: BT-549, 48 h, read-out: Activity
SK-MEL-2 = test: Growth inhibition of human SK-MEL-2 cells assessed as cell growth at 0.1 uM incubated for 48 hrs by sulforhodamine B assay relative to control; details: SK-MEL-2, 48 h, read-out: Activity
MDA-MB-231 = test: Growth inhibition of human MDA-MB-231 cells assessed as cell growth at 1 uM incubated for 48 hrs by sulforhodamine B assay relative to control; details: MDA-MB-231, 48 h, read-out: Activity
UACC-62 = test: Growth inhibition of human UACC62 cells assessed as cell growth at 1 uM incubated for 48 hrs by sulforhodamine B assay relative to control; details: UACC-62, 48 h, read-out: Activity
HOP-62 = test: Growth inhibition of human HOP62 cells assessed as cell growth at 100 uM incubated for 48 hrs by sulforhodamine B assay relative to control; details: HOP-62, 48 h, read-out: Activity
HCT-15 = test: Growth inhibition of human HCT15 cells assessed as cell growth at 10^-5 M incubated for 48 hrs by sulforhodamine B assay relative to control; details: HCT-15, 48 h, read-out: Activity
T47D = test: Growth inhibition of human T47D cells assessed as cell growth at 10^-5 M incubated for 48 hrs by sulforhodamine B assay relative to control; details: read-out: Activity
TK-10 = test: Growth inhibition of human TK10 cells assessed as cell growth at 10^-5 M incubated for 48 hrs by sulforhodamine B assay relative to control; details: TK-10, 48 h, read-out: Activity
IGROV-1 = test: Growth inhibition of human IGROV1 cells assessed as cell growth at 10^-5 M incubated for 48 hrs by sulforhodamine B assay relative to control; details: IGROV-1, 48 h, read-out: Activity
UACC-257 = test: Growth inhibition of human UACC257 cells assessed as cell growth at 10^-5 M incubated for 48 hrs by sulforhodamine B assay relative to control; details: UACC-257, 48 h, read-out: Activity
KM12 = test: Growth inhibition of human KM12 cells assessed as cell growth at 10^-5 M incubated for 48 hrs by sulforhodamine B assay relative to control; details: KM12, 48 h, read-out: Activity
SNB-19 = test: Growth inhibition of human SNB19 cells assessed as cell growth at 10^-5 M incubated for 48 hrs by sulforhodamine B assay relative to control; details: SNB-19, 48 h, read-out: Activity
SF-268 = test: Growth inhibition of human SF268 cells assessed as cell growth at 10^-5 M incubated for 48 hrs by sulforhodamine B assay relative to control; details: SF-268, 48 h, read-out: Activity
U-251 = test: Growth inhibition of human U251 cells assessed as cell growth at 10^-5 M incubated for 48 hrs by sulforhodamine B assay relative to control; details: U-251, 48 h, read-out: Activity
SNB-75 = test: Growth inhibition of human SNB75 cells assessed as cell growth at 10^-5 M incubated for 48 hrs by sulforhodamine B assay relative to control; details: SNB-75, 48 h, read-out: Activity
HT-29 = test: Growth inhibition of human HT-29 cells assessed as cell growth at 10^-5 M incubated for 48 hrs by sulforhodamine B assay relative to control; details: HT-29, 48 h, read-out: Activity
PC-3 = test: Growth inhibition of human PC3 cells assessed as cell growth at 10^-5 M incubated for 48 hrs by sulforhodamine B assay relative to control; details: PC-3, 48 h, read-out: Activity
MOLT-4 = test: Growth inhibition of human MOLT4 cells assessed as cell growth at 10^-5 M incubated for 48 hrs by sulforhodamine B assay relative to control; details: MOLT-4, 48 h, read-out: Activity
SK-MEL-5 = test: Growth inhibition of human SK-MEL-5 cells assessed as cell growth at 10^-5 M incubated for 48 hrs by sulforhodamine B assay relative to control; details: SK-MEL-5, 48 h, read-out: Activity
Malme-3M = test: Growth inhibition of human MALME-3M cells assessed as cell growth at 10^-5 M incubated for 48 hrs by sulforhodamine B assay relative to control; details: read-out: Activity
HCT-116 = test: Growth inhibition of human HCT116 cells assessed as cell growth at 10^-5 M incubated for 48 hrs by sulforhodamine B assay relative to control; details: HCT-116, 48 h, read-out: Activity
NCI-H226 = test: Growth inhibition of human NCI-H226 cells assessed as cell growth at 10^-5 M incubated for 48 hrs by sulforhodamine B assay relative to control; details: NCI-H226, 48 h, read-out: Activity
NCI/ADR-RES = test: Growth inhibition of human NCI-ADR-RES cells assessed as cell growth at 10^-5 M incubated for 48 hrs by sulforhodamine B assay relative to control; details: read-out: Activity
OVCAR-3 = test: Growth inhibition of human OVCAR3 cells assessed as cell growth at 10^-5 M incubated for 48 hrs by sulforhodamine B assay relative to control; details: OVCAR-3, 48 h, read-out: Activity
RXF 393 = test: Growth inhibition of human RXF393 cells assessed as cell growth at 10^-5 M incubated for 48 hrs by sulforhodamine B assay relative to control; details: RXF 393, 48 h, read-out: Activity
SW-620 = test: Growth inhibition of human SW620 cells assessed as cell growth at 10^-5 M incubated for 48 hrs by sulforhodamine B assay relative to control; details: SW-620, 48 h, read-out: Activity
ACHN = test: Growth inhibition of human ACHN cells assessed as cell growth at 10^-5 M incubated for 48 hrs by sulforhodamine B assay relative to control; details: read-out: Activity
NCI-H23 = test: Growth inhibition of human NCI-H23 cells assessed as cell growth at 10^-5 M incubated for 48 hrs by sulforhodamine B assay relative to control; details: NCI-H23, 48 h, read-out: Activity
Hs-578T = test: Growth inhibition of human Hs 578T cells assessed as cell growth at 10^-5 M incubated for 48 hrs by sulforhodamine B assay relative to control; details: read-out: Activity
HL-60(TB) [2] = test: Growth inhibition of human HL-60(TB) cells assessed as cell growth at 10^-5 M incubated for 48 hrs by sulforhodamine B assay relative to control; details: HL-60, 48 h, read-out: Activity
EKVX = test: Growth inhibition of human EKVX cells assessed as cell growth at 10^-5 M incubated for 48 hrs by sulforhodamine B assay relative to control; details: read-out: Activity
OVCAR-5 = test: Growth inhibition of human OVCAR5 cells assessed as cell growth at 10^-5 M incubated for 48 hrs by sulforhodamine B assay relative to control; details: OVCAR-5, 48 h, read-out: Activity

Structure (SMILES) | growth at 1 µM (HL-60(TB) [1]) [%] | growth at 10 µM (BT-549) [%] | growth at 0.1 µM (SK-MEL-2) [%] | growth at 1 µM (MDA-MB-231) [%] | growth at 1 µM (UACC-62) [%] | growth at 100 µM (HOP-62) [%] | growth at 10 µM (HCT-15) [%] | growth at 10 µM (T47D) [%] | growth at 10 µM (TK-10) [%] | growth at 10 µM (IGROV-1) [%] | growth at 10 µM (UACC-257) [%] | growth at 10 µM (KM12) [%] | growth at 10 µM (SNB-19) [%] | growth at 10 µM (SF-268) [%] | growth at 10 µM (PC-3) [%] | growth at 10 µM (SK-MEL-5) [%] | growth at 10 µM (HCT-116) [%] | growth at 10 µM (NCI/ADR-RES) [%] | growth at 10 µM (NCI-H23) [%] | growth at 10 µM (EKVX) [%] | further results
c1ccc2c3c([nH]c2c1)C(c1ccc(C2NCCc4c2[nH]c2ccccc42)cc1)NCC3 (racemic) | 57 | 57 to 86.9 | 94 | 3 | 43 | 83 | – | – | – | – | – | – | – | – | – | – | – | – | – | – | –
c1ccc2c(c1)[nH]c1c(-c3ccc(-c4nccc5c4[nH]c4ccccc45)cc3)nccc12 | – | 87.6 | – | – | – | – | 99.7 | 75.8 | 105 | 88.8 | 119 | 99.1 | 106 | 105 | 84.2 | 79 | 88.2 | 95.9 | 77.7 | 89.5 | growth at 10 µM (U-251): 107%; growth at 10 µM (SNB-75): 82.5%; growth at 10 µM (HT-29): 88.9%; growth at 10 µM (MOLT-4): 97%; growth at 10 µM (Malme-3M): 92.5%; growth at 10 µM (NCI-H226): 90.7%; growth at 10 µM (OVCAR-3): 101%; growth at 10 µM (RXF 393): 111%; growth at 10 µM (SW-620): 108%; growth at 10 µM (ACHN): 99.5%; growth at 10 µM (Hs-578T): 97.7%; growth at 10 µM (HL-60(TB) [2]): 99.1%; growth at 10 µM (OVCAR-5): 110%
c1ccc2[nH]c(-c3ccc(-c4nccc5c4[nH]c4ccccc45)cc3)nc2c1 | 94 | – | 97 | 99 | 80 | 70 | – | – | – | 25 to 94.5 | – | 19 to 76.6 | 27 to 55.1 | 52.2 | 47 to 85.7 | 16 to 62.6 | 1 to 16.3 | 10 to 62.6 | 18 to 69.1 | 13 to 81.2 | –
Cc1ccc(S(=O)(=O)N2CCc3c([nH]c4ccccc34)C2c2ccc(C=O)cc2)cc1 (configuration not stated) | – | 77.1 | – | – | – | – | 94.3 | 89.1 | 98 | 86.5 | 102 | 86.8 | 91.3 | 91.3 | 84.2 | 89.8 | 88.3 | 88.9 | 85.7 | 87.4 | growth at 10 µM (U-251): 98%; growth at 10 µM (SNB-75): 74%; growth at 10 µM (HT-29): 87.2%; growth at 10 µM (MOLT-4): 95.9%; growth at 10 µM (Malme-3M): 89.7%; growth at 10 µM (NCI-H226): 86.4%; growth at 10 µM (OVCAR-3): 93.5%; growth at 10 µM (RXF 393): 96.4%; growth at 10 µM (SW-620): 90.1%; growth at 10 µM (ACHN): 79.1%; growth at 10 µM (Hs-578T): 89.2%; growth at 10 µM (HL-60(TB) [2]): 105%; growth at 10 µM (OVCAR-5): 78.7%
